PubChem BioAssay (NCI)
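Interpolation was linear, between the two tested concentrations surrounding the appropriate level; five concentrations were tested over 48 hours in 96-well plates. The concentration for full growth arrest is given as TGI.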

Assays:
Assay in all cases: inhibition of tumour cell growth, NCI panel, 48 h
DU-145 prostate = tested on: DU-145 prostate
LOX IMVI melanoma = tested on: LOX IMVI melanoma
EKVX NSCLC = tested on: EKVX NSCLC
SF-295 CNS = tested on: SF-295 CNS
HT29 colon = tested on: HT29 colon
PC-3 prostate = tested on: PC-3 prostate
MCF7 breast = tested on: MCF7 breast
NCI-H460 lung = tested on: NCI-H460 lung
NCI-H226 lung = tested on: NCI-H226 lung
SF-268 CNS = tested on: SF-268 CNS
SNB-75 CNS = tested on: SNB-75 CNS
MDA-MB-231 breast = tested on: MDA-MB-231 breast
SK-MEL-28 melanoma = tested on: SK-MEL-28 melanoma
UO-31 renal = tested on: UO-31 renal
M14 melanoma = tested on: M14 melanoma
TK-10 renal = tested on: TK-10 renal
SK-MEL-5 melanoma = tested on: SK-MEL-5 melanoma
RXF 393 renal = tested on: RXF 393 renal
OVCAR-4 ovarian = tested on: OVCAR-4 ovarian
UACC-257 melanoma = tested on: UACC-257 melanoma
IGROV1 ovarian = tested on: IGROV1 ovarian
SNB-19 CNS = tested on: SNB-19 CNS
HL-60(TB) leukemia = tested on: HL-60(TB) leukemia
A549 NSCLC = tested on: A549 NSCLC
CAKI-1 renal = tested on: CAKI-1 renal
K-562 leukemia = tested on: K-562 leukemia
OVCAR-3 ovarian = tested on: OVCAR-3 ovarian
MALME-3M melanoma = tested on: MALME-3M melanoma
COLO 205 colon = tested on: COLO 205 colon
786-0 renal = tested on: 786-0 renal
A498 renal = tested on: A498 renal
MOLT-4 leukemia = tested on: MOLT-4 leukemia
HOP-92 NSCLC = tested on: HOP-92 NSCLC
SK-MEL-2 melanoma = tested on: SK-MEL-2 melanoma
ACHN renal = tested on: ACHN renal
SK-OV-3 ovarian = tested on: SK-OV-3 ovarian
HOP-62 NSCLC = tested on: HOP-62 NSCLC
U251 CNS = tested on: U251 CNS
HCT-116 colon = tested on: HCT-116 colon
SR leukemia = tested on: SR leukemia
NCI-H522 lung = tested on: NCI-H522 lung
OVCAR-8 ovarian = tested on: OVCAR-8 ovarian
MDA-N = tested on: MDA-N
HCC-2998 colon = tested on: HCC-2998 colon
HS 578T breast = tested on: HS 578T breast
SF-539 CNS = tested on: SF-539 CNS
OVCAR-5 ovarian = tested on: OVCAR-5 ovarian
T-47D breast = tested on: T-47D breast
SN12C renal = tested on: SN12C renal
NCI-H23 lung = tested on: NCI-H23 lung
HCT-15 colon = tested on: HCT-15 colon
RPMI-8226 leukemia = tested on: RPMI-8226 leukemia
KM12 colon = tested on: KM12 colon
MDA-MB-435 = tested on: MDA-MB-435
UACC-62 melanoma = tested on: UACC-62 melanoma
SW-620 colon = tested on: SW-620 colon
CCRF-CEM leukemia = tested on: CCRF-CEM leukemia
BT-549 breast = tested on: BT-549 breast
NCI/ADR-RES ovarian = tested on: NCI/ADR-RES ovarian

CC(=O)/C=C/C1=C(C)CCCC1(C)CC(C)C (configuration not stated)
TGI (DU-145 prostate): > 100 µM
TGI (LOX IMVI melanoma): 39.9 µM
TGI (EKVX NSCLC): > 100 µM
TGI (SF-295 CNS): > 100 µM
TGI (HT29 colon): 87.5 µM
TGI (PC-3 prostate): > 100 µM
TGI (MCF7 breast): 66.9 µM
TGI (NCI-H460 lung): > 100 µM
TGI (NCI-H226 lung): > 100 µM
TGI (SF-268 CNS): > 100 µM
TGI (SNB-75 CNS): 93 µM
TGI (MDA-MB-231 breast): > 100 µM
TGI (SK-MEL-28 melanoma): > 100 µM
TGI (UO-31 renal): > 100 µM
TGI (M14 melanoma): > 100 µM
TGI (TK-10 renal): > 100 µM
TGI (SK-MEL-5 melanoma): 49.1 µM
TGI (RXF 393 renal): 28.4 µM
TGI (OVCAR-4 ovarian): > 100 µM
TGI (UACC-257 melanoma): 84 µM
TGI (IGROV1 ovarian): > 100 µM
TGI (SNB-19 CNS): > 100 µM
TGI (HL-60(TB) leukemia): 30.3 µM
TGI (A549 NSCLC): > 100 µM
TGI (CAKI-1 renal): > 100 µM
TGI (K-562 leukemia): 40.8 µM
TGI (OVCAR-3 ovarian): 83 µM
TGI (MALME-3M melanoma): 89.1 µM
TGI (COLO 205 colon): > 100 µM
TGI (786-0 renal): 45.2 µM
TGI (A498 renal): > 100 µM
TGI (MOLT-4 leukemia): 41.5 µM
TGI (HOP-92 NSCLC): 37.7 µM
TGI (SK-MEL-2 melanoma): 43.5 µM
TGI (ACHN renal): 47.9 µM
TGI (SK-OV-3 ovarian): > 100 µM
TGI (HOP-62 NSCLC): > 100 µM
TGI (U251 CNS): 86.7 µM
TGI (HCT-116 colon): 77.8 µM
TGI (SR leukemia): 36.8 µM
TGI (NCI-H522 lung): 57.8 µM
TGI (OVCAR-8 ovarian): > 100 µM
TGI (MDA-N): > 100 µM
TGI (HCC-2998 colon): 35.7 µM
TGI (HS 578T breast): > 100 µM
TGI (SF-539 CNS): > 100 µM
TGI (OVCAR-5 ovarian): > 100 µM
TGI (T-47D breast): 55.5 µM
TGI (SN12C renal): 38.5 µM
TGI (NCI-H23 lung): > 100 µM
TGI (HCT-15 colon): 30.9 µM
TGI (RPMI-8226 leukemia): 36 µM
TGI (KM12 colon): > 100 µM
TGI (MDA-MB-435): > 100 µM
TGI (UACC-62 melanoma): 87.3 µM
TGI (SW-620 colon): 44.1 µM
TGI (CCRF-CEM leukemia): 36.6 µM

C[C@]12CC[C@H](O)CC1=CC[C@@H]1[C@@H]2CC[C@]2(C)C(=N/N)/C(=N\O)C[C@@H]12
TGI (DU-145 prostate): > 100 µM
TGI (LOX IMVI melanoma): > 100 µM
TGI (EKVX NSCLC): > 100 µM
TGI (SF-295 CNS): > 100 µM
TGI (HT29 colon): > 100 µM
TGI (PC-3 prostate): > 100 µM
TGI (BT-549 breast): > 100 µM
TGI (MCF7 breast): > 100 µM
TGI (NCI-H226 lung): > 100 µM
TGI (SF-268 CNS): > 100 µM
TGI (SNB-75 CNS): 30.5 µM
TGI (MDA-MB-231 breast): > 100 µM
TGI (UO-31 renal): > 100 µM
TGI (M14 melanoma): > 100 µM
TGI (TK-10 renal): > 100 µM
TGI (SK-MEL-5 melanoma): > 100 µM
TGI (RXF 393 renal): > 100 µM
TGI (OVCAR-4 ovarian): > 100 µM
TGI (UACC-257 melanoma): > 100 µM
TGI (IGROV1 ovarian): 75.7 µM
TGI (SNB-19 CNS): > 100 µM
TGI (HL-60(TB) leukemia): 67.7 µM
TGI (A549 NSCLC): > 100 µM
TGI (CAKI-1 renal): > 100 µM
TGI (K-562 leukemia): > 100 µM
TGI (OVCAR-3 ovarian): > 100 µM
TGI (MALME-3M melanoma): > 100 µM
TGI (COLO 205 colon): > 100 µM
TGI (786-0 renal): > 100 µM
TGI (A498 renal): 30.8 µM
TGI (MOLT-4 leukemia): > 100 µM
TGI (HOP-92 NSCLC): 11.8 µM
TGI (SK-MEL-2 melanoma): > 100 µM
TGI (ACHN renal): > 100 µM
TGI (SK-OV-3 ovarian): > 100 µM
TGI (HOP-62 NSCLC): > 100 µM
TGI (U251 CNS): 43.4 µM
TGI (HCT-116 colon): > 100 µM
TGI (SR leukemia): > 100 µM
TGI (NCI-H522 lung): > 100 µM
TGI (OVCAR-8 ovarian): > 100 µM
TGI (MDA-N): 48.2 µM
TGI (SF-539 CNS): > 100 µM
TGI (NCI/ADR-RES ovarian): > 100 µM
TGI (OVCAR-5 ovarian): > 100 µM
TGI (T-47D breast): > 100 µM
TGI (SN12C renal): > 100 µM
TGI (NCI-H23 lung): > 100 µM
TGI (HCT-15 colon): > 100 µM
TGI (RPMI-8226 leukemia): > 100 µM
TGI (KM12 colon): > 100 µM
TGI (MDA-MB-435): 5 µM
TGI (UACC-62 melanoma): > 100 µM
TGI (SW-620 colon): > 100 µM
TGI (CCRF-CEM leukemia): > 100 µM
